From US9006250B2, “4-amino-6-(heterocyclic)picolinates and 6-amino-2-(heterocyclic)pyrimidine-4-carboxylates and their use as herbicides” (Dow AgroSciences, LLC, priority 2013, dated 2015)

Tests used:
[1] = test system: AMARE: redroot pigweed (Amaranthus retroflexus); experiment: Post-Emergent Test II herbicidal activity; format: in vivo; conditions: post-emergence, 336 h, 14 days, read-out: Visual Growth Reduction (%) 14 Days After Application AMARE; for pest or weed control at 35 g/ha: 35 g ai/ha; for pest or weed control at 70 g/ha: 70 g ai/ha; for pest or weed control at 140 g/ha: 140 g ai/ha
In short: (§1)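 Plants grown in greenhouse (~15 h photoperiod, 23-29° C day) to first or second true leaf stage, then sprayed with compound in acetone/DMSO-based aqueous formulation with crop oil and surfactant at 187 L/ha, serial twofold rates. Injury scored visually after 14 d, 0-100% versus untreated plants.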

[2] = test system: ZEAMX: maize, corn (Zea mays); experiment: Post-Emergent Test II herbicidal activity; format: in vivo; conditions: post-emergence, 336 h, 14 days, read-out: Visual Growth Reduction (%) 14 Days After Application ZEAMX
In short: as §1

[3] = test system: ORYSA: rice (Oryza sativa); experiment: Post-Emergent Test II herbicidal activity; format: in vivo; conditions: post-emergence, 336 h, 14 days, read-out: Visual Growth Reduction (%) 14 Days After Application ORYSA; for pest or weed control at 35 g/ha: 35 g ai/ha; for pest or weed control at 70 g/ha: 70 g ai/ha; for pest or weed control at 140 g/ha: 140 g ai/ha
In short: as §1

[4] = test system: ECHCG: barnyardgrass (Echinochloa crus-galli); experiment: Post-Emergent Test II herbicidal activity; format: in vivo; conditions: post-emergence, 336 h, 14 days, read-out: Visual Growth Reduction (%) 14 Days After Application ECHCG; for pest or weed control at 35 g/ha: 35 g ai/ha; for pest or weed control at 70 g/ha: 70 g ai/ha; for pest or weed control at 140 g/ha: 140 g ai/ha
In short: as §1

[5] = test system: ABUTH: velvetleaf (Abutilon theophrasti); experiment: Post-Emergent Test II herbicidal activity; format: in vivo; conditions: post-emergence, 336 h, 14 days, read-out: Visual Growth Reduction (%) 14 Days After Application ABUTH; for pest or weed control at 35 g/ha: 35 g ai/ha; for pest or weed control at 70 g/ha: 70 g ai/ha; for pest or weed control at 140 g/ha: 140 g ai/ha
In short: as §1

[6] = test system: CYPES: yellow nutsedge (Cyperus esculentus); experiment: Post-Emergent Test II herbicidal activity; format: in vivo; conditions: post-emergence, 336 h, 14 days, read-out: Visual Growth Reduction (%) 14 Days After Application CYPES; for pest or weed control at 35 g/ha: 35 g ai/ha; for pest or weed control at 70 g/ha: 70 g ai/ha; for pest or weed control at 140 g/ha: 140 g ai/ha
In short: as §1

[7] = test system: EPHHL: wild poinsettia (Euphorbia heterophylla); experiment: Post-Emergent Test II herbicidal activity; format: in vivo; conditions: post-emergence, 336 h, 14 days, read-out: Visual Growth Reduction (%) 14 Days After Application EPHHL; for pest or weed control at 35 g/ha: 35 g ai/ha; for pest or weed control at 70 g/ha: 70 g ai/ha; for pest or weed control at 140 g/ha: 140 g ai/ha
In short: as §1

[8] = test system: BRSNN: oilseed rape, canola (Brassica napus); experiment: Post-Emergent Test II herbicidal activity; format: in vivo; conditions: post-emergence, 336 h, 14 days, read-out: Visual Growth Reduction (%) 14 Days After Application BRSNN; for pest or weed control at 35 g/ha: 35 g ai/ha; for pest or weed control at 70 g/ha: 70 g ai/ha; for pest or weed control at 140 g/ha: 140 g ai/ha
In short: as §1

[9] = test system: TRZAS: wheat, spring (Triticum aestivum); experiment: Post-Emergent Test II herbicidal activity; format: in vivo; conditions: post-emergence, 336 h, 14 days, read-out: Visual Growth Reduction (%) 14 Days After Application TRZAS; for pest or weed control at 35 g/ha: 35 g ai/ha; for pest or weed control at 70 g/ha: 70 g ai/ha; for pest or weed control at 140 g/ha: 140 g ai/ha
In short: as §1

[10] = test system: HELAN: sunflower (Helianthus annuus); experiment: Post-Emergent Test II herbicidal activity; format: in vivo; conditions: post-emergence, 336 h, 14 days, read-out: Visual Growth Reduction (%) 14 Days After Application HELAN; for pest or weed control at 35 g/ha: 35 g ai/ha; for pest or weed control at 70 g/ha: 70 g ai/ha; for pest or weed control at 140 g/ha: 140 g ai/ha
In short: as §1

[11] = test system: CHEAL: lambsquarters (Chenopodium album); experiment: Post-Emergent Test II herbicidal activity; format: in vivo; conditions: post-emergence, 336 h, 14 days, read-out: Visual Growth Reduction (%) 14 Days After Application CHEAL; for pest or weed control at 35 g/ha: 35 g ai/ha; for pest or weed control at 70 g/ha: 70 g ai/ha; for pest or weed control at 140 g/ha: 140 g ai/ha
In short: as §1

[12] = test system: SETFA: giant foxtail (Setaria faberi); experiment: Post-Emergent Test II herbicidal activity; format: in vivo; conditions: post-emergence, 336 h, 14 days, read-out: Visual Growth Reduction (%) 14 Days After Application SETFA; for pest or weed control at 35 g/ha: 35 g ai/ha; for pest or weed control at 70 g/ha: 70 g ai/ha; for pest or weed control at 140 g/ha: 140 g ai/ha
In short: as §1

| SMILES | pest or weed control at 35 g/ha [1] | pest or weed control at 70 g/ha [1] | pest or weed control at 140 g/ha [1] | pest or weed control at 35 g/ha [3] | pest or weed control at 70 g/ha [3] | pest or weed control at 140 g/ha [3] | pest or weed control at 35 g/ha [4] | pest or weed control at 70 g/ha [4] | pest or weed control at 35 g/ha [5] | pest or weed control at 70 g/ha [5] | pest or weed control at 140 g/ha [5] | pest or weed control at 35 g/ha [6] | pest or weed control at 70 g/ha [6] | pest or weed control at 140 g/ha [6] | pest or weed control at 35 g/ha [7] | pest or weed control at 70 g/ha [7] | pest or weed control at 140 g/ha [7] | pest or weed control at 35 g/ha [8] | pest or weed control at 70 g/ha [8] | pest or weed control at 140 g/ha [8] | also measured |
| --- | --- | --- | --- | --- | --- | --- | --- | --- | --- | --- | --- | --- | --- | --- | --- | --- | --- | --- | --- | --- | --- |
| COC(=O)c1nc(-c2ccc3nonc3c2)c(F)c(N)c1Cl [Compound 1, Methyl 4-amino-6-(benzo[c][1,2,5]oxadiazol-5-yl)-3-chloro-5-fluoropicolinate] | 75 to 84% | 75 to 84% | 95 to 100% | 0 to 29% | 0 to 29% | 0 to 29% | 75 to 84% | 75 to 84% | 85 to 94% | 85 to 94% | 95 to 100% | 0 to 29% | 0 to 29% | 95 to 100% | 60 to 74% | 60 to 74% | 60 to 74% | 60 to 74% | 60 to 74% | 60 to 74% | pest or weed control at 35 g/ha ([2]; 35 g ai/ha): 60 to 74%; pest or weed control at 70 g/ha ([2]; 70 g ai/ha): 60 to 74%; pest or weed control at 140 g/ha ([2]; 140 g ai/ha): 60 to 74%; pest or weed control at 35 g/ha [9]: 45 to 59%; pest or weed control at 70 g/ha [9]: 45 to 59%; pest or weed control at 140 g/ha [9]: 60 to 74%; pest or weed control at 35 g/ha [10]: 85 to 94%; pest or weed control at 70 g/ha [10]: 95 to 100%; pest or weed control at 140 g/ha [10]: 95 to 100%; pest or weed control at 35 g/ha [11]: 95 to 100%; pest or weed control at 70 g/ha [11]: 95 to 100%; pest or weed control at 140 g/ha [11]: 95 to 100%; melting point: 180 to 182 °C |
| COC(=O)c1nc(-c2ccc3nonc3c2OC)cc(N)c1Cl [Compound 9, Methyl 4-amino-3-chloro-6-(4-methoxybenzo[c][1,2,5]oxadiazol-5-yl)picolinate] | 45 to 59% | 60 to 74% | 60 to 74% | 0 to 29% | 0 to 29% | 0 to 29% | 0 to 29% | 0 to 29% | 0 to 29% | 0 to 29% | 0 to 29% | 0 to 29% | 0 to 29% | 0 to 29% | 0 to 29% | 0 to 29% | 0 to 29% | 0 to 29% | 0 to 29% | 0 to 29% | pest or weed control at 140 g/ha [4]: 0 to 29%; pest or weed control at 35 g/ha [12]: 0 to 29%; pest or weed control at 70 g/ha [12]: 0 to 29%; pest or weed control at 140 g/ha [12]: 0 to 29%; pest or weed control at 35 g/ha [9]: 0 to 29%; pest or weed control at 70 g/ha [9]: 0 to 29%; pest or weed control at 140 g/ha [9]: 0 to 29%; pest or weed control at 35 g/ha [10]: 0 to 29%; pest or weed control at 70 g/ha [10]: 0 to 29%; pest or weed control at 140 g/ha [10]: 0 to 29%; pest or weed control at 35 g/ha [11]: 60 to 74%; pest or weed control at 70 g/ha [11]: 60 to 74%; pest or weed control at 140 g/ha [11]: 75 to 84%; melting point: 142 to 144 °C |
| COC(=O)c1nc(-c2cccc3nonc23)cc(N)c1Cl [Compound 16] | 85 to 94% | 95 to 100% | 95 to 100% | 0 to 29% | 0 to 29% | 0 to 29% | 0 to 29% | 0 to 29% | 0 to 29% | 0 to 29% | 0 to 29% | 0 to 29% | 0 to 29% | 0 to 29% | 0 to 29% | 0 to 29% | 0 to 29% | 30 to 44% | 45 to 59% | 60 to 74% | pest or weed control at 140 g/ha [4]: 0 to 29%; pest or weed control at 35 g/ha [12]: 0 to 29%; pest or weed control at 70 g/ha [12]: 0 to 29%; pest or weed control at 140 g/ha [12]: 0 to 29%; pest or weed control at 35 g/ha [9]: 0 to 29%; pest or weed control at 70 g/ha [9]: 0 to 29%; pest or weed control at 140 g/ha [9]: 0 to 29%; pest or weed control at 35 g/ha [10]: 0 to 29%; pest or weed control at 70 g/ha [10]: 30 to 44%; pest or weed control at 140 g/ha [10]: 60 to 74%; pest or weed control at 35 g/ha [11]: 60 to 74%; pest or weed control at 70 g/ha [11]: 75 to 84%; pest or weed control at 140 g/ha [11]: 85 to 94%; melting point: 157 to 160 °C |
